Experimental data from patent publication US11422132B2, “Peptides and uses thereof for diagnosing and treating myasthenia gravis” (The Regents of the University of California, priority 2016, dated 2022).

Tests used:
Type in all cases: binding, rat
[1] = tested on: mAb 35; test: Western blot of peptide-IChBD fusion proteins probed with mAb 35; conditions: Western blot
Protocol: (§1) Chitin beads adsorbed with peptide-IChBD fusion proteins were run on an SDS-PAGE gel and transferred to a nitrocellulose membrane and assayed with the four mAbs.
(§2) Chitin beads adsorbed with peptide-IChBD fusion proteins were run on an SDS-PAGE gel and transferred to a nitrocellulose membrane and assayed with the five mAbs.
(§3) To explore the effects of individual amino acid substitutions between the Torpedo and the human AChR MIR mimics, eight peptides were prepared, each with an amino acid substituted from the human sequence into the Torpedo sequence. The single amino acid substitutions in the Torpedo MIR were: N10K (SEQ ID NO:11), L12F (SEQ ID NO:12), R66K (SEQ ID NO:13), A70D (SEQ ID NO:14), I75V (SEQ ID NO:15), R79H (SEQ ID NO:16), D111Q (SEQ ID NO:17), and K115H (SEQ ID NO:18).

[2] = tested on: mAb 132A; test: Western blot of peptide-IChBD fusion proteins probed with mAb 132A; conditions: Western blot
Protocol: as §1, §2, §3

[3] = tested on: mAb 198; test: Western blot of peptide-IChBD fusion proteins probed with mAb 198; conditions: for mAb 198 binding, result in words: Western blot
Description: as §1, §2
The Torpedo (SEQ ID NO:9) and human (SEQ ID NO:8) 39MIRs were made by joining the α(1-12), α(65-79), and α(110-115) segments of their respective a subunits with GS linkers. These two MIR mimics were expressed in E. coli as fusion proteins with an IChBD tag to permit peptide collection on chitin beads. These two peptides differ from each other by eight amino acids (FIG. 2). Both mimics were probed with mAb 198. mAb 198, which was derived from rats that had been immunized with human muscle AChR, is a MIR-directed mAb that binds mammalian as well as Torpedo MIR (13,21). It was also able to passively transfer EAMG to rats and binds to both native assembled AChR and to α-subunit fragments in Western blots (22,23). mAb 198 binds to the Torpedo and human MIR peptide mimics in Western blots (FIG. 3). However, mAb 198 binds to the Torpedo mimic about 50 times more strongly than to the human MIR mimic (FIG. 3).
as §3

[4] = tested on: mAb 35; test: Western blot of peptide-IChBD fusion proteins probed with mAb 35; set-up: key to mAb 35, fold-change in binding relative to Torpedo 39MIR: ‘—’ denotes no binding
[5] = tested on: mAb 132A; test: Western blot of peptide-IChBD fusion proteins probed with mAb 132A; set-up: key to mAb 132A, fold-change in binding relative to Torpedo 39MIR: ‘—’ denotes no binding
[6] = Table 2, Western blot of FIG. 7, human 39MIR multiple mutants
[7] = Table 3, single-substitution human 39MIR mutants

Sequence | mAb 35 binding, result in words [1] | mAb 132A binding, result in words [2] | mAb 198, fold-change in binding relative to Torpedo 39MIR [3, 6] | mAb 198 binding, result in words [3] | mAb 35, fold-change in binding relative to Torpedo 39MIR [4, 6] | mAb 132A, fold-change in binding relative to Torpedo 39MIR [5, 6] | mAb 198, fold-change in binding relative to Torpedo 39MIR [3, 7] | mAb 35, fold-change in binding relative to Torpedo 39MIR [4, 7] | mAb 132A, fold-change in binding relative to Torpedo 39MIR [5, 7] | mAb 198 binding compared to its binding to the human 39MIR ([3]; human 39MIR mutants, relative to human 39MIR) | mAb 35 binding compared to the Torpedo 39MIR peptide ([4]; single point mutated human 39MIR peptides)
SEHETRLVANLFGGGSLKWNPADYGGVKKIHGSLQYTGH (synthetic main immunogenic region (MIR) peptide) [K10N/D70A, Human 39MIR double mutant (K10N/D70A)] | restored binding | restored binding | 0.72 fold-change | restored binding | 0.31 fold-change | 0.16 fold-change |  |  |  |  | 
SEHETRLVANLFGGGSLKWNPDDYGGVKKIHGSLDYTGH (synthetic main immunogenic region (MIR) peptide) [K10N/Q111D, Human 39MIR double mutant (K10N/Q111D)] | restored binding | restored binding | 1.19 fold-change | restored binding | 2.31 fold-change | 1.07 fold-change |  |  |  |  | 
SEHETRLVANLFGGGSLKWNPDDYGGIKKIHGSLQYTGH (synthetic main immunogenic region (MIR) peptide) [K10N/V75I, Human 39MIR double mutant (K10N/V75I)] | restored binding | restored binding | 1.79 fold-change | restored binding | 1.10 fold-change | 1.25 fold-change |  |  |  |  | 
SEHETRLVAKLFGGGSLKWNPADYGGVKKIHGSLQYTGH (synthetic main immunogenic region (MIR) peptide) [Mutant D70A, Human 39MIR single mutant (D70A)] | failed to restore mAb 35 binding |  |  | comparable to binding to human 39MIR |  |  | 0.02 fold-change | — | — |  | 
SEHETRLVAKLFGGGSLKWNPDDYGGIKKIHGSLDYTGH (synthetic main immunogenic region (MIR) peptide) [V75I/Q111D, Human MIR double mutant (V75I/Q111D)] | restored binding | restored binding | 2.71 fold-change | restored binding | 0.92 fold-change | 3.34 fold-change |  |  |  |  | 
SEHETRLVAKLFGGGSLKWNPDDYGGVKKIHGSLDYTGH [Q111D] (synthetic main immunogenic region (MIR) peptide) [Mutant Q111D, Human 39MIR single mutant (Q111D)] | restored mAb 35 binding |  |  |  |  |  | 0.59 fold-change | 0.06 fold-change | — | 35.7 × | 0.06
